Results taken from patent US20080280953A1, “Agents Used for the Treatment of Seeds” (Bayer Cropscience AG, priority 2004, published 2008).

Legend:
Format in all cases: in vivo
[1] = test system: termites (Odontotermes sp.); assay: Odontotermes test, open land (spray treatment); conditions: 240 g/ha, spray on obeche wood
Experimental: (§1) To prepare a suitable active compound preparation 1 part by weight of the active compound is mixed with the given amount of water to the desired concentration.
Areas of wood of the obeche tree (Triplochiton scleroxylon) are treated by spraying with the active compound preparation at the desired concentration and infected with termites (Odontotermes sp.).
After the desired time the activity in % is determined. Here 100% means that the wood was not infested by termites; 0% means that the wood was infested by termites.

[2] = test system: cotton aphid (Aphis gossypii); assay: Aphis gossypii test (seed application); conditions: 4 g ai/ha, cotton seed treatment
Experimental: (§2) To prepare a suitable active compound preparation 1 part by weight of the active compound is mixed with the given amount of solvent and emulsifier and the concentrate is diluted to the desired concentration with water.
Cotton seeds (Gossypium hirsutum) are treated with the active compound preparation and sown into soil. After ca. 2 week the cotton plants are infected with the cotton aphid (Aphis gossypii). After the desired time the death rate in % is determined. Here 100% means that all aphids were killed; 0% means that no aphids were killed.

[3] = test system: white fly (Bemisia tabaci) eggs and larvae; assay: Bemisia tabaci test, treated soil (Example Z); conditions: 4 ppm in soil, cotton plant
Experimental: as §2
The active compound preparation is mixed with earth. The concentration given relates to the amount of active compound per volume unit soil (mg/l=ppm). The treated earth is filled into pots and planted with a cotton plant (Gossypium hirsutum). After a week infection is carried out with white fly (Bemisia tabaci) for egg deposition.
After the desired time the death rate of eggs and larvae, respectively, in % is determined. Here 100% means that all animals were killed; 0% means that no animals that were killed.

[4] = test system: mealy cabbage aphid (Brevicoryne brassicae); assay: Brevicoryne brassicae test, open land (spray treatment), Example J1; conditions: 300 g/ha, spray on cabbage plants
Experimental: as §1
(§3) Cabbage plants (Brassica oleracea) that are infested with all stages of the mealy cabbage aphid (Brevicoryne brassicae) are sprayed with an active compound preparation at the desired concentration.
(§4) After the desired time the death rate in % is determined. Here 100% means that all aphids were killed; 0% means that no aphids were killed.

[5] = test system: brown plant hopper (Nilaparvata lugens); assay: Nilaparvata lugens test, open land (spray treatment); conditions: 300 g/ha, spray on rice plants
Experimental: as §1
Rice plants (Oryza sativa) that are infested with all stages of the brown plant hopper (Nilaparvata lugens) are sprayed with an active compound preparation at the desired concentration.
After the desired time the death rate in % is determined. Here 100% means that all plant hoppers were killed; 0% means that no plant hoppers were killed.

[6] = test system: adults of the Colorado beetle (Leptinotarsa decemlineata); assay: Leptinotarsa decemlineata adults test; conditions: 60 g/ha, spray on potato leaves
Experimental: (§5) To prepare a suitable active compound preparation 1 part by weight of the active compound is mixed with the given amount of solvent and emulsifier and the concentrate is diluted to the desired concentration with water containing emulsifier.
Leaves of potato plant (Solanum tuberosum) that are infested with adults of the Colorado beetle, (Leptinotarsa decemlineata) are treated by spraying with the active compound at the desired concentration.
After the desired time the activity in % is determined. Here 100% means that all beetles were killed; 0% means that no beetles were killed.

[7] = test system: cotton aphid (Aphis gossypii); assay: Aphis gossypii test (soil application); conditions: 4 ppm in soil, cotton plant
Experimental: as §2
The active compound mixture was mixed with soil. The concentration given refers to amount of active compound per volume unit of soil (mg/l=ppm). Pots are filled with the treated earth and planted with a cotton plant (Gossypium hirsutum). After one week the plants are infected with the cotton aphid (Aphis gossypii).
as §4

[8] = test system: caterpillars of the fall army worm (Spodoptera frugiperda); assay: Spodoptera frugiperda test (spray treatment); conditions: 500 g/ha; spray on maize leaf sections; after 7 d
Experimental: as §5
Maize leaf sections (Zea mays) are sprayed with an active compound preparation at the desired concentration and after drying treated with caterpillars of the fall army worm (Spodoptera frugiperda).
After the desired time the activity in % is determined. Here 100% means that all caterpillars were killed; 0% means that no caterpillars were killed.

[9] = test system: onion thrips (Thrips tabaci); assay: Thrips tabaci test, open land (spray treatment); conditions: 300 g/ha, spray on onions
Experimental: as §1
Onions (Allium cepa) that are infested with all stages of the onion thrips (Thrips tabaci) are sprayed with an active compound preparation at the desired concentration.
After the desired time the death rate in % is determined. Here 100% means that all thrips were killed; 0% means that no thrips were killed.

[10] = test system: bird cherry-oat aphid (Rhopalosiphon padi); assay: Rhopalosiphon padi test (seed application); conditions: 1.4 g ai/kg, barley seed treatment
Experimental: as §2
Barley seed (Hordeum vulgare) is treated with the active compound preparation and sown into the soil. After about 1 week the barley plants are infected with the bird cherry-oat aphid (Rhopalosiphon padi).
as §4

[11] = test system: mixed thrips population (Frankliniella occidentalis); assay: Frankliniella occidentalis test, spraying of cotton plants; conditions: 100 ppm, spray on cotton plants
Experimental: as §5
Cotton plants (Gossypium hirsutum) are treated by spraying with the active compound preparation at the desired concentration and infected with a mixed thrips population (Frankliniella occidentalis).
After the desired time the activity in % is determined. Here 100% means that all thrips were killed; 0% means that no thrips were killed.

[12] = test system: horse chestnut scale (Pulvinaria regalis); assay: Pulvinaria regalis test, spraying of chestnut trees (Example B1); conditions: 100 ppm, spray on chestnut trees
Experimental: as §5
Chestnut trees (Castaney vesca) that are infested with horse chestnut scale (Pulvinaria regalis) are treated by spraying with the active compound preparation at the desired concentration.
After the desired time the death rate in % is determined. Here 100% means that all animals were killed; 0% means that no animals were killed.

[13] = test system: mealy cabbage aphid (Brevicoryne brassicae); assay: Brevicoryne brassicae test, open land (spray treatment), Example M1; conditions: 300 g/ha, spray on cabbage plants
Experimental: as §1, §3
After the desired time the death rate in % is determined. Here 100% means that all nymphs were killed; 0% means that no nymphs were killed.

[14] = test system: larvae of the corn root worm (Diabrotica balteata); assay: Diabrotica balteata larvae test (soil application); conditions: 8 ppm in soil, maize
Experimental: as §2
The active compound mixture was mixed with soil. The concentration given refers to amount of active compound per volume unit of earth (mg/l=ppm). Pots are filled with the treated earth and planted with 5 maize seeds per pot. 3 days after seeding larvae of the corn root worm (Diabrotica balteata) were placed in the treated soil.
After the desired time the death rate in % is determined. The level of activity is determined by the number of emerging plants

[15] = test system: green peach aphid (Myzus persicae); assay: Myzus persicae test (soil application); conditions: 4 ppm in soil, pepper plant
Experimental: as §2
The active compound mixture was mixed with soil. The concentration given refers to amount of active compound per volume unit of earth (mg/l=ppm). Pots are filled with the treated earth and planted with a pepper plant (Capsicum annuum). After a week they are infected with the green peach aphid (Myzus persicae).
as §4

[16] = test system: green leaf hopper (Nephotettix sp.); assay: Nephotettix sp. test, open land (spray treatment); conditions: 300 g/ha, spray on rice plants
Experimental: as §1
Rice plants (Oryza sativa) that are infested with all stages of the green leaf hopper (Nephotettix sp.) are sprayed with an active compound preparation at the desired concentration.
After the desired time the death rate in % is determined. Here 100% means that all leaf hoppers were killed; 0% means that no leaf hoppers were killed.

Row | Compound | activity after 45 days ([1]; after 45 days) | Activity in % after 7 d [2] | death rate after 14 days [3] | death rate after 22 days [4] | death rate after 14 days [5] | activity after 7 days [6] | Activity in % after 7 d [7] | Death rate in % after 7 d [8] | death rate after 14 days [9] | Activity in % after 7 d [10] | Activity in % after 14 d [11] | death rate after 30 days [12] | death rate after 28 days [13] | Activity in % after 4 d [14] | Activity in % after 7 d [15] | death rate after 15 days [16] | activity after 65 days ([1]; after 65 days)
1 | CN(Cc1ccc(Cl)nc1)C1=CC(=O)OC1 [Compound 84] | 99% | 100% | 100% | 99% | 91% | 100% | 100% | 100% | 89% | 100% | 99% | 100% | 96% | 100% | 100% | 98% | 
2 | O=C1C=C(N(Cc2ccc(Cl)nc2)C2CC2)CO1 [Compound 88] |  | 100% | 100% | 99% | 99% | 100% | 100% | 100% | 98% | 100% | 99% | 95% | 99% | 90% | 100% | 99% | 95%
